Measurements from US20120083473A1, “TREATMENT OF CONDITIONS BY TOLL-LIKE RECEPTOR MODULATORS” (priority 2010, published 2012).

Assays:
[1] = test system: human monocytes (Mo); experiment: M1/M2 gene expression in human monocytes (Real-Time PCR); format: cell-based; conditions: excluding Mo from one healthy donor
Procedure: To evaluate the effects of TMX on human cell activation, monocytes were isolated from buffy coats obtained from four different healthy donors. With respect to macrophage tolerance, cells were treated with Compound 2 (10 microM) up to 20 hours and then re-challenged with agonists/ligands of different TLRs (TLR2, TLR4, TLR5, TLR9, TLR7, etc. . . . ), including the TLR7 unconjugated ligand 1V209 (free pharmacophore) at a concentration of 10 microM.
Cell Culture and treatments. Monocytes (Mo) were obtained from buffycoats collected from healthy donors as previously described (Porta C et al, PNAS 2009). Cells were incubated in RPMI 1640 medium, containing 10% fetal bovine serum, 2 mM glutamine and 100 U/ml of penicillin-streptomycin. The concentrations for the different treatments were as follows: LPS (100 ng/ml) (Lipopolysaccharide from Salmonella Abortus Equi S-form, Alexis), CpG (1 microg/ml), Pam3CSK (2 microg/ml), Poly I:C (10 microg/ml), Loxorubine (100 microM), flagellin (100 ng/ml). To induce TMX tolerance, cells were incubated in the presence of TMX (10 microM) for 20 hrs, washed and maintained in RPMI medium for 2 hrs and then re-challenged with TMX (10 microM) for 4 hrs. To induce TMX-tolerization (T/M) cells were treated with TMX for 20 hrs, washed and then maintained in medium for additional 6 hours, without TMX re-challenge. To induce M1-activation cells were incubated in medium for 20 hrs, washed, left in medium for 2 hrs and finally stimulated with TMX (10 microM) for 4 hrs. Control cells (M/M) were cultured in medium for the entire period of the experiment. For gene expression analysis, total RNA was extracted from TMX treated and untreated cells with trizol (Invitrogen), according to the manufacturer's instructions. To analyze cytokines and chemokines production supernatants were collected 24 hrs after the second challenge with TMX.
Real-Time PCR. Total RNA was purified as previously described. Briefly, reverse transcription from 1 microgram of RNA was performed using a cDNA Archive kit (Applied Biosystem, NJ, USA). Real time PCR was performed using Power Syber Green PCR Master Mix (Applied Biosystem, NJ, USA) and detected by 7900HT Fast Real-Time System (Applied Biosystem, NJ, USA). Data were processed using the SDS2.2.2 software (Applied Biosystem, NJ, USA). Results were normalized to the expression of the housekeeping gene 8-actin and then expressed as folds of upregulation, with respect to the control cell population.

[2] = test system: murine peritoneal macrophages (PEC); experiment: Dose-response of M1 and M2 gene expression in PEC (RT PCR); format: cell-based, mice; conditions: PECs treated 4 hours or 20 hours with increased concentrations
Procedure: A third group of experiments was performed to investigate the dose-response effects of TMX, its potency as compared to classical inflammatory signals (e.g. LPS) and the activation of selected transcription factors playing an established role in tolerance, as well as in the induction of M1/M2 polarized inflammatory programs. PECs treated for 4 hours or 20 hours with 100 ng/mlof LPS or increased concentrations of TMX or 1V209 were analyzed by RT PCR for the expression of representative M1 (TNFα, IL-12p40) and M2 (IL-10, TGFβ) genes. […] In this experiment, as compared to 1V209, TMX is a lower inducer of M1 genes expression.
Cell Culture and treatments. Peritoneal exudate cells (PEC) were harvested from mice injected with 1 ml of 3% (w/v) thioglycollate medium (Difco, Detroit, Mich.) 4 days prior to isolation. PECs were incubated in RPMI 1640 medium, containing 10% fetal bovine serum, 2 mM glutamine and 100 U/ml of penicillin-streptomycin. The concentration for the different treatments were as follows: LPS (100 ng/ml) (Lipopolysaccharide from Salmonella Abortus Equi S-form, Alexis), CpG (1 μg/ml), Pam3CSK (2 μg/ml), Poly I:C (10 μg/ml), Loxorubine (100 μM), flagellin (100 ng/ml) IL-1β (20 ng/ml), TNF (20 ng/ml), IL-10 (20 ng/ml) (Peprotech), IFNγ (200 U/ml) (Peprotech). To induce TMX tolerance, cells were incubated in the presence of TMX (10 μM or 1 μM) for 20 hrs, washed and maintained in RPMI medium for 2 hrs and then re-challenged with TMX (10 μM) for 4 hrs. To induce TMX-tolerization (T/M) cells were treated with TMX for 20 hrs, washed and then maintained in medium for additional 6 hours, without TMX re-challenge. To induce M1-activation, cells were incubated in medium for 20 hrs, washed, left in medium for 2 hrs and finally stimulated with TMX (10 μM) for 4 hrs. Control cells (M/M) were cultured in medium for the entire period of the experiment. For gene expression analysis, total RNA was extracted from TMX treated and untreated cells with trizol (Invitrogen), according to the manufacturer's instructions. To analyze cytokines and chemokines production supernatants were collected 24 hrs after the second challenge with TMX.
Real-Time PCR. Total RNA was purified as previously described. Briefly, reverse transcription from 1 μg of RNA was performed using cDNA Archive kit (Applied Biosystem, NJ, USA). Real time PCR was performed using Power Syber Green PCR Master Mix (Applied Biosystem, NJ, USA) and detected by 7900HT Fast Real-Time System (Applied Biosystem, NJ, USA). Data were processed using the SDS2.2.2 software (Applied Biosystem, NJ, USA). Results were normalized to the expression of the housekeeping gene β-actin and then expressed as folds of upregulation, with respect to the control cell population.

[3] = PK analysis after i.v. administration in mice; format: in vivo
[4] = Dissolution in suitable solvents for testing; format: physicochemical

In the case of COCCOc1nc(N)c2[nH]c(=O)n(Cc3ccc(C(=O)O)cc3)c2n1 [Compound 1V209, 4-((6-amino-2-(2-methoxyethoxy)-8-oxo-7H-purin-9(8H)-yl)methyl)benzoic acid, reference compound], the “potency as compared to Compound 2 in terms of induction of both M1 and M2 gene expression” value [1] is reported as “higher potency” and the “induction of both M1 and M2 gene expression” value [2] is reported as “dose-dependent induction”.
In the case of COCCOc1nc(N)c2nc(O)n(Cc3ccc(C(=O)NCCOCCOCCOCCOCCOCCOCCOCCOCCOCCOCCn4cc(CCC(=O)O)nn4)cc3)c2n1 [Compound 6, 3-(1-(1-(4-((6-amino-8-hydroxy-2-(2-methoxyethoxy)-9H-purin-9-yl)methyl)phenyl)-1-oxo-5,8,11,14,17,20,23,26,29,32-decaoxa-2-azatetratriacontan-34-yl)-1H-1,2,3-triazol-4-yl)propanoic acid], the “AUC in comparison with Compound 3” value [3] is reported as “lower”, the “Cmax in comparison with Compound 3” value [3] is reported as “lower” and the “clearance in comparison with Compound 3” value [3] is reported as “higher”. The “half life in comparison with Compound 3” value [3] was “longer”.
With CCCCCCCC/C=C\CCCCCCCC(=O)OCC(COP(=O)(O)OCCNC(=O)c1ccc(Cn2c(=O)[nH]c3c(N)nc(OCCOC)nc32)cc1)OC(=O)CCCCCCC/C=C\CCCCCCCC (stereo not shown) [compound (6), 2-(4-((6-amino-2-(2-methoxyethoxy)-8-oxo-7H-purin-9(8H)-yl)methyl)benzamido)ethyl 2,3-bis(oleoyloxy)propyl phosphate] the “dissolution in suitable solvents for testing” value [4] was “difficulty in dissolution”.
